In patent US20220152004A1, “HETEROCYCLYL(PHENYL)METHANOL COMPOUNDS USEFUL IN THE TREATMENT OF HYPERGLYCAEMIA” (ATROGI AB, priority 2019, published 2022):
Structures can show the parent of a compound that is named as a salt.

Columns and labels:
L6-myotubes [1] = test: Glucose uptake (3H-2-deoxy-glucose) in differentiated L6-myotubes; format: cell-based; settings: agonist final concentration 1×10^−5; for Biological example 3: Table 2, glucose uptake assay of Biological Example 1
Description: (§1) L6-myoblasts were grown in Dulbecco's Modified Eagle's Medium (DMEM) containing 4.5 g/l glucose supplemented with 10% fetal bovine serum, 2 mM L-Glutamine, 50 U/ml penicillin, 50 μg/ml streptomycin and 10 mM HEPES. Cells were plated at 1×10^5 cells per ml in 24-well plates. After reaching 90% confluence the cells were grown in medium containing 2% FBS for 7 days where upon cells differentiated into myotubes.
Differentiated L6-myotubes were serum-starved overnight in medium containing 0,5% fatty-acid free BSA and stimulated with agonist, final concentration 1×10^−5. After 1 h 40 min cells were washed with warm, glucose free medium or PBS and another portion of agonist was added to glucose free medium. After 20 min the cells were exposed to 50 nM ^3H-2-deoxy-glucose for another 10 min before washed in ice cold glucose free medium or PBS and lysed in 0.2 M NaOH for 1 h in 60° C.

L6-myotubes [2] = test: Measurement of intracellular cAMP levels in differentiated L6-myotubes; format: cell-based; settings: for Biological example 4: Table 2, cAMP assay of Biological Example 2, agonist final concentration 1×10^−5
Description: as §1
Differentiated cells were serum-starved overnight and stimulated with agonist, final concentration 1×10^−5, for 15 min in stimulation buffer (HBSS supplemented with 1% BSA, 5 mM HEPES and 1 mM IBMX, pH 7,4) The medium was then aspirated and to end the reaction 100 μL of 95% EtOH was added to each well of a 24-well plate and cells were kept in −20° C. over night. The EtOH was let to evaporate and 500 μL of lysis buffer (1% BSA, 5 mM HEPES and 0,3% Tween-20, pH 7,4) was added to each well before put in −80° C. for 30 min and then kept in −20° C. Intracellular cAMP levels were detected using an alpha screen cAMP kit (6760635D from Perkin Elmer). The activity for each compound is compared to that of isoproterenol.

`O[C@@H](c1cccc(F)c1)[C@H]1CCC2(CCCC2)N1` [Example 32, (S)-(3-Fluorophenyl)((R)-1-azaspiro[4.4]nonan-2-yl)methanol maleate] was tested, and the Emax at 10 µM (L6-myotubes [1]; differentiated L6-myotubes, Table 1, read-out: Biological example 1 (glucose uptake, activity compared to that of isoproterenol)) was under 25% and the Emax at 10 µM (L6-myotubes [2]; 0.25 h, agonist final concentration 1×10^−5, 15 min, differentiated cells, Table 1, read-out: Biological example 2 (intracellular cAMP levels, activity compared to that of isoproterenol)) was under 25%.

With `CC1(C)C[C@H]([C@H](O)c2cccc(F)c2)N1.Cl` [Example 33, (R)-((R)-4,4-dimethylazetidin-2-yl)(3-fluorophenyl)methanol hydrochloride] the “Biological example 3” value (L6-myotubes [1]) was “+++ (more than 75% of that of isoproterenol)” and the “Biological example 4” value (L6-myotubes [2]) was “++ (between 75 and 50%)”.

For `CC1(C)C[C@@H]([C@@H](O)c2ccccc2F)N1.Cl` [Example 34, (S)-((S)-4,4-dimethylazetidin-2-yl)(2-fluorophenyl)methanol hydrochloride], the “Biological example 3” value (L6-myotubes [1]) was “+ (between 50 and 25%)” and the “Biological example 4” value (L6-myotubes [2]) was “− (less than 25%)”.

For `CC1(C)C[C@H]([C@H](O)c2ccccc2F)N1.Cl` [Example 35, (R)-((R)-4,4-dimethylazetidin-2-yl)(2-fluorophenyl)methanol hydrochloride], the “Biological example 3” value (L6-myotubes [1]) was “+++ (more than 75% of that of isoproterenol)” and the “Biological example 4” value (L6-myotubes [2]) was “+ (between 50 and 25%)”.

For `CC1(C)C[C@H]([C@@H](O)c2ccccc2F)N1.Cl` [Example 36, (S)-((R)-4,4-dimethylazetidin-2-yl)(2-fluorophenyl)methanol hydrochloride], the “Biological example 3” value (L6-myotubes [1]) was “+ (between 50 and 25%)” and the “Biological example 4” value (L6-myotubes [2]) was “− (less than 25%)”.

`CC1(C)C[C@@H]([C@H](O)c2ccccc2F)N1.Cl` [Example 37, (R)-((S)-4,4-dimethylazetidin-2-yl)(2-fluorophenyl)methanol hydrochloride] was tested, and the “Biological example 3” value (L6-myotubes [1]) was “− (less than 25%)” and the “Biological example 4” value (L6-myotubes [2]) was “− (less than 25%)”.

For `CC1(C)C[C@@H]([C@H](O)c2cccc(F)c2)N1.Cl` [Example 39, (R)-((S)-4,4-dimethylazetidin-2-yl)(3-fluorophenyl)methanol hydrochloride], the “Biological example 3” value (L6-myotubes [1]) was “− (less than 25%)” and the “Biological example 4” value (L6-myotubes [2]) was “− (less than 25%)”.

For `CC1(C)C[C@@H]([C@@H](O)c2cccc(F)c2)N1.Cl` [Example 40, (S)-((S)-4,4-dimethylazetidin-2-yl)(3-fluorophenyl)methanol hydrochloride], the “Biological example 3” value (L6-myotubes [1]) was “+ (between 50 and 25%)” and the “Biological example 4” value (L6-myotubes [2]) was “− (less than 25%)”.

For `CC1(C)CCC[C@@H]([C@H](O)c2ccccc2F)N1.Cl` [Example 41, (R)-((S)-6,6-dimethylpiperidin-2-yl)(2-fluorophenyl)methanol hydrochloride], the “Biological example 3” value (L6-myotubes [1]) was “+++ (more than 75% of that of isoproterenol)” and the “Biological example 4” value (L6-myotubes [2]) was “+ (between 50 and 25%)”.

With `CC1(C)CCC[C@@H]([C@@H](O)c2ccccc2F)N1.Cl` [Example 42, (S)-((S)-6,6-dimethylpiperidin-2-yl)(2-fluorophenyl)methanol hydrochloride] the “Biological example 3” value (L6-myotubes [1]) was “+ (between 50 and 25%)” and the “Biological example 4” value (L6-myotubes [2]) was “− (less than 25%)”.

For `CC1(C)CCC[C@@H]([C@@H](O)c2cccc(F)c2)N1.Cl` [Example 43, (S)-((S)-6,6-dimethylpiperidin-2-yl)(3-fluorophenyl)methanol hydrochloride], the “Biological example 3” value (L6-myotubes [1]) was “+ (between 50 and 25%)” and the “Biological example 4” value (L6-myotubes [2]) was “− (less than 25%)”.

`CC1(C)CCC[C@@H]([C@H](O)c2cccc(F)c2)N1.Cl` [Example 44, (R)-((S)-6,6-dimethylpiperidin-2-yl)(3-fluorophenyl)methanol hydrochloride] was tested, and the “Biological example 3” value (L6-myotubes [1]) was “++ (between 75 and 50%)” and the “Biological example 4” value (L6-myotubes [2]) was “− (less than 25%)”.

For `CC1(C)C[C@H]([C@H](O)c2cccc(Cl)c2)N1.O=C(O)/C=C\C(=O)O` [Example 45, (R)-(3-chlorophenyl)((R)-4,4-dimethylazetidin-2-yl)methanol maleate], the “Biological example 3” value (L6-myotubes [1]) was “+++ (more than 75% of that of isoproterenol)” and the “Biological example 4” value (L6-myotubes [2]) was “− (less than 25%)”.

In the case of `CC1(C)C[C@H]([C@@H](O)c2cccc(Cl)c2)N1.O=C(O)/C=C\C(=O)O` [Example 46, (S)-(3-chlorophenyl)((R)-4,4-dimethylazetidin-2-yl)methanol maleate], the “Biological example 3” value (L6-myotubes [1]) is reported as “− (less than 25%)” and the “Biological example 4” value (L6-myotubes [2]) is reported as “− (less than 25%)”.

With `CC1(C)C[C@@H]([C@H](O)c2cccc(Cl)c2)N1.O=C(O)/C=C\C(=O)O` [Example 47, (R)-(3-chlorophenyl)((S)-4,4-dimethylazetidin-2-yl)methanol maleate] the “Biological example 3” value (L6-myotubes [1]) was “++ (between 75 and 50%)” and the “Biological example 4” value (L6-myotubes [2]) was “− (less than 25%)”.

With `CC1(C)C[C@@H]([C@@H](O)c2cccc(Cl)c2)N1.O=C(O)/C=C\C(=O)O` [Example 48, (S)-(3-chlorophenyl)((S)-4,4-dimethylazetidin-2-yl)methanol maleate] the “Biological example 3” value (L6-myotubes [1]) was “+ (between 50 and 25%)” and the “Biological example 4” value (L6-myotubes [2]) was “− (less than 25%)”.

For `CC1(C)CC[C@H]([C@H](O)c2cccc(N)c2F)N1.Cl` [Example 49, (R)-(3-amino-2-fluorophenyl)((R)-5,5-dimethylpyrrolidin-2-yl)methanol hydrochloride], the “Biological example 3” value (L6-myotubes [1]) was “+++ (more than 75% of that of isoproterenol)” and the “Biological example 4” value (L6-myotubes [2]) was “− (less than 25%)”.

`CC1(C)CC[C@H]([C@@H](O)c2cccc(N)c2F)N1.Cl` [Example 50, (S)-(3-amino-2-fluorophenyl)((R)-5,5-dimethylpyrrolidin-2-yl)methanol hydrochloride] was tested, and the “Biological example 3” value (L6-myotubes [1]) was “+ (between 50 and 25%)” and the “Biological example 4” value (L6-myotubes [2]) was “− (less than 25%)”.
